{
  "source": "PubChem BioAssay AID743165",
  "about": "(Broad Institute, 2013)",
  "tested_on": "Mycobacterium tuberculosis replicating, CFU imaging",
  "assay": "IC90 against replicating M. tuberculosis, dose response, CFU by imaging, dry powder, 7108-03 (AID 743165)",
  "data": [
    {"smiles": "CCOC(=O)NC(=O)c1ccsc1NC(=O)c1nc2ccccc2s1", "values": [
      {"measurement": "IC90", "result": "< 8", "unit": "µM"}
    ]},
    {"smiles": "Cn1c(NC(=O)c2ccccc2)nc2ccccc21", "values": [
      {"measurement": "IC90", "result": "< 48", "unit": "µM"}
    ]}
  ]
}
